Measurements from ChEMBL document CHEMBL1201862, “PubChem BioAssay data set” (2004).
Activity calls are given as the source filed them.

Experiments:
Cytochrome P450 3A4 = Cytochrome P450 3A4 (Homo sapiens, UniProt P08684);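 note: CYP3A4 tested as one member of a cytochrome P450 panel screen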
Bcl-2-related protein A1 = biological target: T1, Bcl-2-related protein A1 (Mus musculus, UniProt Q07440); format: functional;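 note: confirmatory dose–response counterscreen on Bfl-1, used to check hits from a UBC13 polyubiquitin inhibitor campaign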
T1 sequence (Q07440 whole entry): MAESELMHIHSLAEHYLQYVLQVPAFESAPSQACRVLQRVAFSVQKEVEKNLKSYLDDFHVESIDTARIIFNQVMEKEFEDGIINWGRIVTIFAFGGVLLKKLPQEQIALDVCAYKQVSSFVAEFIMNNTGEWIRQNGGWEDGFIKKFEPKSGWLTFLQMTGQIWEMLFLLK

[1] = biological target: T2, Ubiquitin-conjugating enzyme E2 N (Homo sapiens, UniProt P61088); format: functional
T2 sequence (P61088 whole entry): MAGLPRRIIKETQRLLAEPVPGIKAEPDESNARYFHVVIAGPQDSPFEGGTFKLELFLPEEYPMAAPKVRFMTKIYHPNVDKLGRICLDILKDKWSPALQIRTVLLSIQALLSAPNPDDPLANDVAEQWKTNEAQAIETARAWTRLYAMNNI

[2] = biological target: T2, Ubiquitin-conjugating enzyme E2 N; format: functional; remark: listed apart in the source
[3] = biological target: DNA dC->dU-editing enzyme APOBEC-3A (Homo sapiens, UniProt P31941); assay: Dose Response confirmation of small molecule APOBEC3A DNA Deaminase Inhibitors via a fluorescence-based single-stranded DNA deaminase assay. [Related pubchem assays (depositor defined):AID493011, AID493024]; format: functional
DNA dC->dU-editing enzyme APOBEC-3A, sequence (P31941 whole entry): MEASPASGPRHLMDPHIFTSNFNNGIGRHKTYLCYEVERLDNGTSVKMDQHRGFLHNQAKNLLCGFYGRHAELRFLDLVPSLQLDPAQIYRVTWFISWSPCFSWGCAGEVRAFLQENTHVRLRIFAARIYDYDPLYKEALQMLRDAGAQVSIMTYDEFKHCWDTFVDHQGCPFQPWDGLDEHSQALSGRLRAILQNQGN

[4] = biological target: DNA dC->dU-editing enzyme APOBEC-3G (Homo sapiens, UniProt Q9HC16); format: functional;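 note: Dose-response counterscreen measuring inhibition of APOBEC3G DNA deaminase activity, run while confirming APOBEC3A inhibitors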
DNA dC->dU-editing enzyme APOBEC-3G, sequence (Q9HC16 whole entry): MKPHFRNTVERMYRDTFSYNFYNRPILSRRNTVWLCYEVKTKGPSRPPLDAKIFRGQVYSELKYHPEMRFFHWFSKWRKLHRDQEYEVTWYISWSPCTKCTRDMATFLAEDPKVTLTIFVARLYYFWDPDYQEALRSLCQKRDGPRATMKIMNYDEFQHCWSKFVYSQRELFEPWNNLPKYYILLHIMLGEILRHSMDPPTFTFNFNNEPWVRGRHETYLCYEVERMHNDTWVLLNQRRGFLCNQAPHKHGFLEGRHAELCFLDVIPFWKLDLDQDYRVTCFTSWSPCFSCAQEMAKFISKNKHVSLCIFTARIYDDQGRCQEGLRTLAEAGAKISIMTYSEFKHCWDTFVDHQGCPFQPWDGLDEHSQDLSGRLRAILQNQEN

Cytochrome P450 2C9 = Cytochrome P450 2C9 (Homo sapiens, UniProt P11712)
Cytochrome P450 2C9, sequence (P11712 whole entry): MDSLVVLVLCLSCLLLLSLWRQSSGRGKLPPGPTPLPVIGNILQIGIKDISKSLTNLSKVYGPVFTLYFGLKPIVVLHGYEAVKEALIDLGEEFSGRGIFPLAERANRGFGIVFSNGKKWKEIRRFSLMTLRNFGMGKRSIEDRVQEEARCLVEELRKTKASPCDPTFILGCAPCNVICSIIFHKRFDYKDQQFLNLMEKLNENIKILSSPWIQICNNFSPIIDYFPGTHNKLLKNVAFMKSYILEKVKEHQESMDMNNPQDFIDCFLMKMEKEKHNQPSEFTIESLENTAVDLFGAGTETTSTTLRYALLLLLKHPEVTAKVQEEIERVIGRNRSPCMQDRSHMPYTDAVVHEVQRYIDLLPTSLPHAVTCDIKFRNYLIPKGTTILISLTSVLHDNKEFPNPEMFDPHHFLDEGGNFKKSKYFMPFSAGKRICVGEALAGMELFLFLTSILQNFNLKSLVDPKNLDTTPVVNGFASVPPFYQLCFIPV

Cytochrome P450 2D6 [5] = biological target: T3, Cytochrome P450 2D6 (Homo sapiens, UniProt P10635);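 note: CYP2D6 member of a cytochrome P450 panel assay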
T3 sequence (P10635 whole entry): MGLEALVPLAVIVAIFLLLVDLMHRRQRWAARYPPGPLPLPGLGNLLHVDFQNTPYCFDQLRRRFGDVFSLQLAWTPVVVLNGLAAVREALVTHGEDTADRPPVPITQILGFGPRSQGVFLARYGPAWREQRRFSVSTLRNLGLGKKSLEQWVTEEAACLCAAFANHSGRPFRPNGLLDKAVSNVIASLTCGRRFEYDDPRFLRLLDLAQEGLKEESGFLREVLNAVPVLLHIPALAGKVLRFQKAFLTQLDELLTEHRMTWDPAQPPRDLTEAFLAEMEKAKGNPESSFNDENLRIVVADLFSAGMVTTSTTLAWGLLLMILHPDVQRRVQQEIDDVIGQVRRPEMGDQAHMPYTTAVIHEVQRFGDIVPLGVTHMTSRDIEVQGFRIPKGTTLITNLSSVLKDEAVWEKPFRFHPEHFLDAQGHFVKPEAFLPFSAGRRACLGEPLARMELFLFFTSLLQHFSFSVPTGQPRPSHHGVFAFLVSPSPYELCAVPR

Cytochrome P450 2C19 = Cytochrome P450 2C19 (Homo sapiens, UniProt P33261); assay: Cytochrome panel assay with activity outcomes. Panel member name: p450-cyp2c19 Compounds with AC50 equal or less than 10 uM are considered active; format: functional
Cytochrome P450 2C19, sequence (P33261 whole entry): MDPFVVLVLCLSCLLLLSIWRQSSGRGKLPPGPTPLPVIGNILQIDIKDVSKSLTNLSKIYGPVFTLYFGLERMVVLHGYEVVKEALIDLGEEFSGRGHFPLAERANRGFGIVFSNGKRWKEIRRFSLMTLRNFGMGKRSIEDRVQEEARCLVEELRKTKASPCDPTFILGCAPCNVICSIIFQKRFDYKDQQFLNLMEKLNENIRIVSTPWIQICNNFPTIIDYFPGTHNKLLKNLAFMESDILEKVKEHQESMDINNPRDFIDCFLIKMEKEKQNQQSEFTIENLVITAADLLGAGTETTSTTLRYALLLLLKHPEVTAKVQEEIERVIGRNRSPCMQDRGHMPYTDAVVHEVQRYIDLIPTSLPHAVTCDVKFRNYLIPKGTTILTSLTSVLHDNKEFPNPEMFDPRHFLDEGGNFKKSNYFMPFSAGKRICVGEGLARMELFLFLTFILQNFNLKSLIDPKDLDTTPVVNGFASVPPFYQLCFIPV

Cytochrome P450 2D6 [6] = biological target: T3, Cytochrome P450 2D6; remark: listed apart in the source
[7] = tested on: Streptococcus sp. 'group A'; assay: growth inhibition of control SK(-) GAS strain, dose response, counter-screen for streptokinase expression inhibitor project, luminescence, kanamycin, BacTiterGlo, confirmation (AID 1900); format: functional, organism-based
Streptococcus = assay: Group A Streptococcus viability loss, dose response, counter-screen for streptokinase expression inhibitor project, luminescence, BacTiterGlo (AID 1915); format: functional, organism-based;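 note: potency for reduction of bacterial viability or growth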
[8] = THP-1 cell cytotoxicity, dose response, cytotoxicity control for non-replicating M. tuberculosis project (AID 489025); format: functional
[9] = Vero E6 cell cytotoxicity, dose response, cytotoxicity control for non-replicating M. tuberculosis project, secondary assay (AID 492998); format: functional, VeroE6; settings: Vero C1008
cells = format: functional
Cytochrome P450 1A2 = biological target: T4, Cytochrome P450 1A2 (Homo sapiens, UniProt P05177);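 note: PubChem cytochrome P450 panel assay, CYP1A2 panel member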
T4 sequence (P05177 whole entry): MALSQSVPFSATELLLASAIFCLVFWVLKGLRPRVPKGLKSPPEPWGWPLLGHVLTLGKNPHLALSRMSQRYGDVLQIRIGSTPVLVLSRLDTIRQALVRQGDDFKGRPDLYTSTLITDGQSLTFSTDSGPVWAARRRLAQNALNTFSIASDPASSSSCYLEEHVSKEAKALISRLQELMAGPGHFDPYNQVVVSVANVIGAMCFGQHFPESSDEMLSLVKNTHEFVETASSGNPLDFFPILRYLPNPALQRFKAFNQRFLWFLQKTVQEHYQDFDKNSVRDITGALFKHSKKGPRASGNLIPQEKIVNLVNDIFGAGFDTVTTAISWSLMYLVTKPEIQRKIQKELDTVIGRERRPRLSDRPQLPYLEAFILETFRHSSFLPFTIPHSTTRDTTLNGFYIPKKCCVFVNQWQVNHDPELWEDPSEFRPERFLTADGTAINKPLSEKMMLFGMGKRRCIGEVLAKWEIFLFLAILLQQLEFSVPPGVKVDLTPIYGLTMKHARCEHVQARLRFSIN

[10] = biological target: Alkaline phosphatase, placental type (Homo sapiens, UniProt P05187); assay: PLAP enzyme inhibitors, confirmation, biochemical, luminescence (AID 1512); format: functional
Alkaline phosphatase, placental type, sequence (P05187 whole entry): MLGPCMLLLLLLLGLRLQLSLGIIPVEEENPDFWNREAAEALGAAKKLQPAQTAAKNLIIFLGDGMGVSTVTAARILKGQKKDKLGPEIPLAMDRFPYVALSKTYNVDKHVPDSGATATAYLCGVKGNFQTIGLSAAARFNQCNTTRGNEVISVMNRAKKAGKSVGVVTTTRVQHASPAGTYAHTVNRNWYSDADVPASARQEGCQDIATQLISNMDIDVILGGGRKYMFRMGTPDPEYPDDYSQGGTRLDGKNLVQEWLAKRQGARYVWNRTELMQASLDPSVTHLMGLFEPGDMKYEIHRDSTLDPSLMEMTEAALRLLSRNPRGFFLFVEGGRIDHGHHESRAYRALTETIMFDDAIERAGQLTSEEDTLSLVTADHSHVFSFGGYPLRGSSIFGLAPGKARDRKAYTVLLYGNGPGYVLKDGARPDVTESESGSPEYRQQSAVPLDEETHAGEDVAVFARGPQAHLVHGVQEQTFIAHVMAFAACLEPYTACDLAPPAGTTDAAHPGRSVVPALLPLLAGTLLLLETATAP

[11] = biological target: T5, Alkaline phosphatase, tissue-nonspecific isozyme (Homo sapiens, UniProt P05186); assay: human TNAP enzyme inhibitors, SAR follow-up, biochemical, luminescent, dose response (AID 1056)
T5 sequence (P05186 whole entry): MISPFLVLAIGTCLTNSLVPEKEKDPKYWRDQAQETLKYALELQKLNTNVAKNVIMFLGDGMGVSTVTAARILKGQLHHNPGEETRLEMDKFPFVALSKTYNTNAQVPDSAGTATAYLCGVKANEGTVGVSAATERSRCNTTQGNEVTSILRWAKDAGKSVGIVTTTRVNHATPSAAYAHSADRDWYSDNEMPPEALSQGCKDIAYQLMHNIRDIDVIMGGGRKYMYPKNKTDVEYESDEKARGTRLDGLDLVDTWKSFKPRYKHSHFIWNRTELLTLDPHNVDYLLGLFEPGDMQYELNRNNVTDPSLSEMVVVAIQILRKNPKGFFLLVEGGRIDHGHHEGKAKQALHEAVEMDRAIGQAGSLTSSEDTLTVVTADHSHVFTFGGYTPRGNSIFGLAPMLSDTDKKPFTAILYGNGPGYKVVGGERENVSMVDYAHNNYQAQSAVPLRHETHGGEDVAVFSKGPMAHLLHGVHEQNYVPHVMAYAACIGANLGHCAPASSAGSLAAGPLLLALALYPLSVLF

Cytochrome P450 3A4, sequence (P08684 whole entry): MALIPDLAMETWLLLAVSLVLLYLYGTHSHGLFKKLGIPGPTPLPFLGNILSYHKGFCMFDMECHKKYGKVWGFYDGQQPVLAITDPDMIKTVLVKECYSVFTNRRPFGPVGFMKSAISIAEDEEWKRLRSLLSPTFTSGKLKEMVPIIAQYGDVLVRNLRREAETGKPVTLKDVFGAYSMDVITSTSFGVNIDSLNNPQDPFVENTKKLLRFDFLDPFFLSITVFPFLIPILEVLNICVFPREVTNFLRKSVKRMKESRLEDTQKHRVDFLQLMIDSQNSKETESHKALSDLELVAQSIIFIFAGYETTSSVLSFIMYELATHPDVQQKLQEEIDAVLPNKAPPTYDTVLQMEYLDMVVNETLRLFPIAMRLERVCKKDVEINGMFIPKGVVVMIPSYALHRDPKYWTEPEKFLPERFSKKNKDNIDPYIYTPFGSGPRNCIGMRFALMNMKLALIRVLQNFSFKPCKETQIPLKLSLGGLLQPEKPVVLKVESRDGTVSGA

With `COC(=O)[C@](C)(N)Cc1ccc(O)cc1` as the compound, how does the AC50 (Cytochrome P450 3A4) read?
The AC50 was “inconclusive”.

Which IC50 (Bcl-2-related protein A1) does the source give for `O=C(Nc1ccc(F)c(Cl)c1)C1CCN(c2ncnc3c2nc2n3CCCCC2)CC1` here?
Its IC50 is > 20 µM (inactive).

What about the IC50 [1] of the same compound?
The IC50 was 9.53 µM (active).

And the IC50 [2]?
The IC50 was 8.53 µM (active).

What does the source list for `CC(=O)Nc1nnc(SCC(=O)NCCOc2ccccc2)s1`?
IC50 [3]: 4.13 µM (active); IC50 [4]: 5.12 µM (active)

For `COCCNC(=O)COC(=O)/C=C/c1cnc2ccccc2n1`, which AC50 (Cytochrome P450 2C9) is on record?
The AC50 was 1.12 µM (inconclusive).

And the AC50 (Cytochrome P450 2D6 [5])?
The AC50 was “inconclusive”.

For `CCN1C(NCCCCO)=N[C@@H](c2cccc(F)c2)C(C(=O)OC)=C1C`, which IC50 [3] is on record?
The IC50 was 3.06 µM (active).

What about the IC50 [4] of the same compound?
Its IC50 is 5.05 µM (active).

For `COC(=O)c1ccc(NC(=O)N2CCC(O)(c3cccnc3)CC2)cc1`, which AC50 (Cytochrome P450 2C19) is on record?
The AC50 was “inconclusive”.

What about the AC50 (Cytochrome P450 2D6 [6]) of the same compound?
Its AC50 is 15.8 µM (inconclusive).

And the AC50 (Cytochrome P450 3A4)?
Its AC50 is “inconclusive”.

For `c1ccc2c(c1)nnn2CN1CCOCC1`, which AC50 (Cytochrome P450 2D6 [5]) is on record?
The AC50 was “inconclusive”.

With `O=C1c2cccc3cccc(c23)C(=O)N1CC1CCN(CC(O)COCc2ccc3c(c2)OCO3)CC1` (configuration not stated) as the compound, how does the IC50 (Bcl-2-related protein A1) read?
The IC50 was > 20 µM (inactive).

What about the IC50 [1] of the same compound?
The IC50 was 4.33 µM (active).

What about the IC50 [2] of the same compound?
The IC50 was 3.25 µM (active).

With `CN1CCN(C(=O)C2CCN(c3ncnc4c3nc3n4CCCCC3)CC2)CC1` as the compound, how does the IC50 (Bcl-2-related protein A1) read?
Its IC50 is > 20 µM (inactive).

And the IC50 [1]?
Its IC50 is 6.77 µM (active).

And the IC50 [2]?
The IC50 was 3.51 µM (active).

Which AC50 (Cytochrome P450 2C19) does the source give for `CC(C)CCC[C@@H](C)[C@@H]1CC[C@@H]2[C@H]3CC[C@H]4C[C@@H](N)CC[C@@]4(C)[C@@H]3CC[C@]21C` here?
The AC50 was “inconclusive”.

And the AC50 (Cytochrome P450 2D6 [5])?
Its AC50 is “inconclusive”.

What does the source list for `CCC(C(=O)NC1CCCC1)N(C(=O)c1snc(C(N)=O)c1N)c1ccc2c(c1)OCCO2` (configuration not stated)?
IC50 (Bcl-2-related protein A1): > 20 µM (inactive); IC50 [1]: 5.82 µM (active); IC50 [2]: 7.69 µM (active)

With `C[C@H](Br)CN(C[C@H](C)Br)c1ccc2c(c1)Cc1ccccc1-2` as the compound, how does the AC50 (Cytochrome P450 2D6 [5]) read?
The AC50 was “inconclusive”.

What does the source list for `CCC(CC)c1nnc(NC(=O)c2ccc3ccccc3n2)s1`?
EC50 [7]: 8.53 µM (active); EC50 (Streptococcus): 12.5 µM (active); CC50 [8]: > 40 µM (active); CC50 [9]: 18.4 µM (active); IC50 (cells): 0.42 µM (active); AC50 (Cytochrome P450 2C19; read-out: AC50): 28.2 µM (active); AC50 (Cytochrome P450 1A2): 2.51 µM (active); AC50 (Cytochrome P450 2C9): 7.94 µM (active); AC50 (Cytochrome P450 2D6 [5]): inactive

With `COc1ccc(C(=O)N2CCC3(CC2)CCN(c2ncccn2)CC3)cc1` as the compound, how does the AC50 (Cytochrome P450 2D6 [6]) read?
The AC50 was 20 µM (inconclusive).

And the AC50 (Cytochrome P450 3A4)?
Its AC50 is “inconclusive”.

What does the source list for `Cc1ccc(N(C(=O)c2snc(C(N)=O)c2N)C(C(=O)NC2CCCC2)c2ccco2)cc1` (configuration not stated)?
IC50 (Bcl-2-related protein A1): > 20 µM (inactive); IC50 [1]: 13.3 µM (active); IC50 [2]: 8.18 µM (active)

For `O/N=C/c1cc(Cl)ccc1OCc1cccc2ccccc12`, which IC50 [10] is on record?
The IC50 was > 100 µM (inactive).

And the IC50 [11]?
The IC50 was > 100 µM (inactive).

For `Cc1ccc(/C=N/NC(=O)c2cccs2)cc1[N+](=O)[O-]`, which AC50 (Cytochrome P450 2C19; read-out: AC50) is on record?
Its AC50 is 31.6 µM (inconclusive).

And the AC50 (Cytochrome P450 2D6 [6])?
Its AC50 is 0.0251 µM (inconclusive).

What about the AC50 (Cytochrome P450 3A4) of the same compound?
The AC50 was “inconclusive”.

With `Cc1cnn(CC(=O)c2ccc(O)c(O)c2)c1` as the compound, how does the IC50 [10] read?
Its IC50 is 2.13 µM (active).

What about the IC50 [11] of the same compound?
Its IC50 is > 100 µM (inactive).
